Laboratory results as given in patent US4514414A, “N-Substituted pyrrolidineacetic acids and their esters” (Smithkline Beckman Corporation, priority 1982, dated 1985).

Test system: GABA uptake by a crude synaptosomal fraction (P2) of the rat brain
Test: Inhibition of 3H-GABA uptake by crude synaptosomal fraction (P2) of rat brain
Format: biochemical
Details: rat brain P2 synaptosomal suspension, 37° C., 15 minutes preincubation, 1 μM 3H-GABA, incubation time 3 minutes; read-out: IC50 (concentration producing a 50% inhibition of GABA accumulation)
Protocol: The inhibition of GABA uptake produced by the compounds of this invention is measured by the ability of the active medicament to inhibit ^3 H-GABA uptake by a crude synaptosomal fraction (P2) of the rat brain. In this test system, aliquots of the P2 suspension are preincubated in a buffered physiological medium at 37° C. in the presence of test compound for 15 minutes. Uptake is initiated by the addition of ^3 H-GABA to a final concentration of 1 μM and terminated by filtration through a 0.45 um Millipore filter. Incubation time is 3 minutes. A compound producing a 50% or greater inhibition of GABA uptake at concentrations of 10 μM is considered to show biosignificant activity. The IC50 value is the concentration of a compound producing a 50% inhibition of GABA accumulation.

For `O=C(O)CC1CCN(CCC=C(c2ccccc2)c2ccccc2)C1` (stereo not shown) [1-(4,4-diphenyl-3-butenyl)-3-pyrrolidineacetic acid], the IC50 was 121 nM.
